# Columns and labels:
# Format in all cases: functional
# Bacillus subtilis [1] = test: Antibacterial activity against Bacillus subtilis MTCC 441 at 100 ug/ml after 48 hr by cup-plate method; conditions: MTCC 441, 48 h, read-out: DIZ
# Pseudomonas fluorescens [2] = test: Antibacterial activity against Pseudomonas fluorescens MTCC 2421 at 1250 ug/ml after 48 hr by cup-plate method; conditions: MTCC 2421, 48 h, read-out: DIZ
# Bacillus pumilus [3] = test: Antibacterial activity against Bacillus pumilus MTCC 1456 at 1000 ug/ml after 48 hr by cup-plate method; conditions: MTCC 1456, 48 h, read-out: DIZ
# Staphylococcus aureus [4] = test: Antibacterial activity against Staphylococcus aureus MTCC 1430 at 250 ug/ml after 48 hr by cup-plate method; conditions: MTCC 1430, 48 h, read-out: DIZ
# Pseudomonas fluorescens [5] = test: Antibacterial activity against Pseudomonas fluorescens MTCC 2421 at 500 ug/ml after 48 hr by cup-plate method; conditions: MTCC 2421, 48 h, read-out: DIZ
# Escherichia coli [6] = test: Antibacterial activity against Escherichia coli MTCC 1573 at 1250 ug/ml after 48 hr by cup-plate method; conditions: MTCC 1573, 48 h, read-out: DIZ
# Pseudomonas aeruginosa [7] = test: Antibacterial activity against Pseudomonas aeruginosa MTCC 424 at 250 ug/ml after 48 hr by cup-plate method; conditions: MTCC 424, 48 h, read-out: DIZ
# Bacillus subtilis [8] = test: Antibacterial activity against Bacillus subtilis MTCC 441 at 1000 ug/ml after 48 hr by cup-plate method; conditions: MTCC 441, 48 h, read-out: DIZ
# Pseudomonas aeruginosa [9] = test: Antibacterial activity against Pseudomonas aeruginosa MTCC 424 at 100 ug/ml after 48 hr by cup-plate method; conditions: MTCC 424, 48 h, read-out: DIZ
# Pseudomonas aeruginosa [10] = test: Antibacterial activity against Pseudomonas aeruginosa MTCC 424 after 24 to 48 hr by tube dilution method
# Micrococcus luteus [11] = test: Antibacterial activity against Micrococcus luteus MTCC 1538 at 250 ug/ml after 48 hr by cup-plate method; conditions: MTCC 1538, 48 h, read-out: DIZ
# Bacillus pumilus [12] = test: Antibacterial activity against Bacillus pumilus MTCC 1456 at 750 ug/ml after 48 hr by cup-plate method; conditions: MTCC 1456, 48 h, read-out: DIZ
# Bacillus pumilus [13] = test: Antibacterial activity against Bacillus pumilus MTCC 1456 at 250 ug/ml after 48 hr by cup-plate method; conditions: MTCC 1456, 48 h, read-out: DIZ
# Escherichia coli [14] = test: Antibacterial activity against Escherichia coli MTCC 1573 after 24 to 48 hr by tube dilution method
# Pseudomonas fluorescens [15] = test: Antibacterial activity against Pseudomonas fluorescens MTCC 2421 at 750 ug/ml after 48 hr by cup-plate method; conditions: MTCC 2421, 48 h, read-out: DIZ
# Pseudomonas aeruginosa [16] = test: Antibacterial activity against Pseudomonas aeruginosa MTCC 424 at 500 ug/ml after 48 hr by cup-plate method; conditions: MTCC 424, 48 h, read-out: DIZ
# Bacillus pumilus [17] = test: Antibacterial activity against Bacillus pumilus MTCC 1456 at 1250 ug/ml after 48 hr by cup-plate method; conditions: MTCC 1456, 48 h, read-out: DIZ
# Aspergillus niger [18] = test: Antifungal activity against Aspergillus niger MTCC 2546 at 1250 ug/ml after 48 hr by cup-plate method; conditions: MTCC 2546, 48 h, read-out: DIZ
# Escherichia coli [19] = test: Antibacterial activity against Escherichia coli MTCC 1573 at 100 ug/ml after 48 hr by cup-plate method; conditions: MTCC 1573, 48 h, read-out: DIZ
# Escherichia coli [20] = test: Antibacterial activity against Escherichia coli MTCC 1573 at 750 ug/ml after 48 hr by cup-plate method; conditions: MTCC 1573, 48 h, read-out: DIZ
# Aspergillus niger [21] = test: Antifungal activity against Aspergillus niger MTCC 2546 at 500 ug/ml after 48 hr by cup-plate method; conditions: MTCC 2546, 48 h, read-out: DIZ
# Bacillus subtilis [22] = test: Antibacterial activity against Bacillus subtilis MTCC 441 at 500 ug/ml after 48 hr by cup-plate method; conditions: MTCC 441, 48 h, read-out: DIZ
# Penicillium chrysogenum [23] = test: Antifungal activity against Penicillium chrysogenum MTCC 161 at 1000 ug/ml after 48 hr by cup-plate method; conditions: MTCC 161, 48 h, read-out: DIZ
# Penicillium chrysogenum [24] = test: Antifungal activity against Penicillium chrysogenum MTCC 161 after 24 to 48 hr by tube dilution method
# Micrococcus luteus [25] = test: Antibacterial activity against Micrococcus luteus MTCC 1538 after 24 to 48 hr by tube dilution method
# Bacillus subtilis [26] = test: Antibacterial activity against Bacillus subtilis MTCC 441 at 750 ug/ml after 48 hr by cup-plate method; conditions: MTCC 441, 48 h, read-out: DIZ
# Penicillium chrysogenum [27] = test: Antifungal activity against Penicillium chrysogenum MTCC 161 at 750 ug/ml after 48 hr by cup-plate method; conditions: MTCC 161, 48 h, read-out: DIZ
# Staphylococcus aureus [28] = test: Antibacterial activity against Staphylococcus aureus MTCC 1430 at 500 ug/ml after 48 hr by cup-plate method; conditions: MTCC 1430, 48 h, read-out: DIZ
# Escherichia coli [29] = test: Antibacterial activity against Escherichia coli MTCC 1573 at 1000 ug/ml after 48 hr by cup-plate method; conditions: MTCC 1573, 48 h, read-out: DIZ
# Staphylococcus aureus [30] = test: Antibacterial activity against Staphylococcus aureus MTCC 1430 at 1250 ug/ml after 48 hr by cup-plate method; conditions: MTCC 1430, 48 h, read-out: DIZ
# Bacillus subtilis [31] = test: Antibacterial activity against Bacillus subtilis MTCC 441 at 1250 ug/ml after 48 hr by cup-plate method; conditions: MTCC 441, 48 h, read-out: DIZ
# Micrococcus luteus [32] = test: Antibacterial activity against Micrococcus luteus MTCC 1538 at 100 ug/ml after 48 hr by cup-plate method; conditions: MTCC 1538, 48 h, read-out: DIZ
# Aspergillus niger [33] = test: Antifungal activity against Aspergillus niger MTCC 2546 at 1000 ug/ml after 48 hr by cup-plate method; conditions: MTCC 2546, 48 h, read-out: DIZ
# Bacillus subtilis [34] = test: Antibacterial activity against Bacillus subtilis MTCC 441 after 24 to 48 hr by tube dilution method
# Staphylococcus aureus [35] = test: Antibacterial activity against Staphylococcus aureus MTCC 1430 at 750 ug/ml after 48 hr by cup-plate method; conditions: MTCC 1430, 48 h, read-out: DIZ
# Escherichia coli [36] = test: Antibacterial activity against Escherichia coli MTCC 1573 at 500 ug/ml after 48 hr by cup-plate method; conditions: MTCC 1573, 48 h, read-out: DIZ
# Penicillium chrysogenum [37] = test: Antifungal activity against Penicillium chrysogenum MTCC 161 at 500 ug/ml after 48 hr by cup-plate method; conditions: MTCC 161, 48 h, read-out: DIZ
# Escherichia coli [38] = test: Antibacterial activity against Escherichia coli MTCC 1573 at 250 ug/ml after 48 hr by cup-plate method; conditions: MTCC 1573, 48 h, read-out: DIZ
# Bacillus pumilus [39] = test: Antibacterial activity against Bacillus pumilus MTCC 1456 at 100 ug/ml after 48 hr by cup-plate method; conditions: MTCC 1456, 48 h, read-out: DIZ
# Pseudomonas fluorescens [40] = test: Antibacterial activity against Pseudomonas fluorescens MTCC 2421 at 1000 ug/ml after 48 hr by cup-plate method; conditions: MTCC 2421, 48 h, read-out: DIZ
# Bacillus pumilus [41] = test: Antibacterial activity against Bacillus pumilus MTCC 1456 after 24 to 48 hr by tube dilution method
# Micrococcus luteus [42] = test: Antibacterial activity against Micrococcus luteus MTCC 1538 at 1000 ug/ml after 48 hr by cup-plate method; conditions: MTCC 1538, 48 h, read-out: DIZ
# Micrococcus luteus [43] = test: Antibacterial activity against Micrococcus luteus MTCC 1538 at 500 ug/ml after 48 hr by cup-plate method; conditions: MTCC 1538, 48 h, read-out: DIZ
# Penicillium chrysogenum [44] = test: Antifungal activity against Penicillium chrysogenum MTCC 161 at 1250 ug/ml after 48 hr by cup-plate method; conditions: MTCC 161, 48 h, read-out: DIZ
# Micrococcus luteus [45] = test: Antibacterial activity against Micrococcus luteus MTCC 1538 at 750 ug/ml after 48 hr by cup-plate method; conditions: MTCC 1538, 48 h, read-out: DIZ
# Pseudomonas fluorescens [46] = test: Antibacterial activity against Pseudomonas fluorescens MTCC 2421 after 24 to 48 hr by tube dilution method
# Staphylococcus aureus [47] = test: Antibacterial activity against Staphylococcus aureus MTCC 1430 at 1000 ug/ml after 48 hr by cup-plate method; conditions: MTCC 1430, 48 h, read-out: DIZ
# Micrococcus luteus [48] = test: Antibacterial activity against Micrococcus luteus MTCC 1538 at 1250 ug/ml after 48 hr by cup-plate method; conditions: MTCC 1538, 48 h, read-out: DIZ
# Bacillus subtilis [49] = test: Antibacterial activity against Bacillus subtilis MTCC 441 at 250 ug/ml after 48 hr by cup-plate method; conditions: MTCC 441, 48 h, read-out: DIZ
# Pseudomonas aeruginosa [50] = test: Antibacterial activity against Pseudomonas aeruginosa MTCC 424 at 1250 ug/ml after 48 hr by cup-plate method; conditions: MTCC 424, 48 h, read-out: DIZ
# Aspergillus niger [51] = test: Antifungal activity against Aspergillus niger MTCC 2546 after 24 to 48 hr by tube dilution method
# Staphylococcus aureus [52] = test: Antibacterial activity against Staphylococcus aureus MTCC 1430 after 24 to 48 hr by tube dilution method
# Pseudomonas aeruginosa [53] = test: Antibacterial activity against Pseudomonas aeruginosa MTCC 424 at 1000 ug/ml after 48 hr by cup-plate method; conditions: MTCC 424, 48 h, read-out: DIZ
# Pseudomonas aeruginosa [54] = test: Antibacterial activity against Pseudomonas aeruginosa MTCC 424 at 750 ug/ml after 48 hr by cup-plate method; conditions: MTCC 424, 48 h, read-out: DIZ
# Bacillus pumilus [55] = test: Antibacterial activity against Bacillus pumilus MTCC 1456 at 500 ug/ml after 48 hr by cup-plate method; conditions: MTCC 1456, 48 h, read-out: DIZ
compound,measurement,setting,value
O=[N+]([O-])c1ccc(C2CC(c3cccc4ccccc34)=NN2c2ccc([N+](=O)[O-])cc2[N+](=O)[O-])cc1 (stereo not given),zone of inhibition at 100 µg/mL,Bacillus subtilis [1],11 mm
same,zone of inhibition at 1250 µg/mL,Pseudomonas fluorescens [2],25 mm
same,zone of inhibition at 1000 µg/mL,Bacillus pumilus [3],22 mm
same,zone of inhibition at 250 µg/mL,Staphylococcus aureus [4],8 mm
same,zone of inhibition at 500 µg/mL,Pseudomonas fluorescens [5],18 mm
same,zone of inhibition at 1250 µg/mL,Escherichia coli [6],17 mm
same,zone of inhibition at 250 µg/mL,Pseudomonas aeruginosa [7],11 mm
same,zone of inhibition at 1000 µg/mL,Bacillus subtilis [8],15 mm
same,zone of inhibition at 100 µg/mL,Pseudomonas aeruginosa [9],10 mm
same,MIC,Pseudomonas aeruginosa [10],50 µg/mL
same,zone of inhibition at 250 µg/mL,Micrococcus luteus [11],9 mm
same,zone of inhibition at 750 µg/mL,Bacillus pumilus [12],20 mm
same,zone of inhibition at 250 µg/mL,Bacillus pumilus [13],11 mm
same,MIC,Escherichia coli [14],150 µg/mL
same,zone of inhibition at 750 µg/mL,Pseudomonas fluorescens [15],21 mm
same,zone of inhibition at 500 µg/mL,Pseudomonas aeruginosa [16],12 mm
same,zone of inhibition at 1250 µg/mL,Bacillus pumilus [17],24 mm
same,zone of inhibition at 1250 µg/mL,Aspergillus niger [18],23 mm
same,zone of inhibition at 100 µg/mL,Escherichia coli [19],9 mm
same,zone of inhibition at 750 µg/mL,Escherichia coli [20],12 mm
same,zone of inhibition at 500 µg/mL,Aspergillus niger [21],16 mm
same,zone of inhibition at 500 µg/mL,Bacillus subtilis [22],13 mm
same,zone of inhibition at 1000 µg/mL,Penicillium chrysogenum [23],24 mm
same,MIC,Penicillium chrysogenum [24],50 µg/mL
same,MIC,Micrococcus luteus [25],150 µg/mL
same,zone of inhibition at 750 µg/mL,Bacillus subtilis [26],14 mm
same,zone of inhibition at 750 µg/mL,Penicillium chrysogenum [27],22 mm
same,zone of inhibition at 500 µg/mL,Staphylococcus aureus [28],9 mm
same,zone of inhibition at 1000 µg/mL,Escherichia coli [29],14 mm
same,zone of inhibition at 1250 µg/mL,Staphylococcus aureus [30],14 mm
same,zone of inhibition at 1250 µg/mL,Bacillus subtilis [31],16 mm
same,zone of inhibition at 100 µg/mL,Micrococcus luteus [32],8 mm
same,zone of inhibition at 1000 µg/mL,Aspergillus niger [33],21 mm
same,MIC,Bacillus subtilis [34],50 µg/mL
same,zone of inhibition at 750 µg/mL,Staphylococcus aureus [35],10 mm
same,zone of inhibition at 500 µg/mL,Escherichia coli [36],11 mm
same,zone of inhibition at 500 µg/mL,Penicillium chrysogenum [37],18 mm
same,zone of inhibition at 250 µg/mL,Escherichia coli [38],10 mm
same,zone of inhibition at 100 µg/mL,Bacillus pumilus [39],10 mm
same,zone of inhibition at 1000 µg/mL,Pseudomonas fluorescens [40],22 mm
same,MIC,Bacillus pumilus [41],30 µg/mL
same,zone of inhibition at 1000 µg/mL,Micrococcus luteus [42],12 mm
same,zone of inhibition at 500 µg/mL,Micrococcus luteus [43],10 mm
same,zone of inhibition at 1250 µg/mL,Penicillium chrysogenum [44],26 mm
same,zone of inhibition at 750 µg/mL,Micrococcus luteus [45],11 mm
same,MIC,Pseudomonas fluorescens [46],150 µg/mL
same,zone of inhibition at 1000 µg/mL,Staphylococcus aureus [47],12 mm
same,zone of inhibition at 1250 µg/mL,Micrococcus luteus [48],14 mm
same,zone of inhibition at 250 µg/mL,Bacillus subtilis [49],12 mm
same,zone of inhibition at 1250 µg/mL,Pseudomonas aeruginosa [50],17 mm
same,MIC,Aspergillus niger [51],150 µg/mL
same,MIC,Staphylococcus aureus [52],150 µg/mL
same,zone of inhibition at 1000 µg/mL,Pseudomonas aeruginosa [53],14 mm
same,zone of inhibition at 750 µg/mL,Pseudomonas aeruginosa [54],13 mm
same,zone of inhibition at 500 µg/mL,Bacillus pumilus [55],18 mm
